Assays:
[1] = system: rabbit serum obtained by immunizing a rabbit with the SARS-CoV strain Frankfurt 1; assay type: binding; set-up: Binding of a rabbit serum to linear peptides / Binding of a rabbit serum to looped peptides / Rabbit serum linear peptides / Rabbit serum looped peptides / Binding of a rabbit serum to linear peptides of protein N of SARS-CoV Urbani (Rabbit serum linear peptides) / Binding of a rabbit serum to looped/cyclic peptides of protein N of SARS-CoV Urbani (Rabbit serum looped peptides): unit not given here
[2] = system: antibodies in sera from SARS patients (sera 1a, 1b, 2, 6, 37, 62, London, SARS-yellow, SARS-green); assay type: binding, human; set-up: Binding of serum 6 to linear peptides of protein X1 of SARS-CoV Urbani / Binding of serum 37 to linear peptides of protein X1 of SARS-CoV Urbani / Binding of serum 6 to looped/cyclic peptide (PEPSCAN-ELISA) / Binding of serum 37 to looped/cyclic peptide (PEPSCAN-ELISA) / Binding of serum 37 to looped/cyclic peptides of protein X1 of SARS-CoV Urbani / Binding of serum 6 to linear peptides of protein X2 / Binding of serum 37 to linear peptides of protein X2 / Binding of serum 37 to looped/cyclic peptides of protein X2 of SARS-CoV Urbani / Binding of serum 6 to linear peptides of protein M of SARS-CoV Urbani / Binding of serum 37 to linear peptides of protein M of SARS-CoV Urbani / Binding of serum 6 to looped/cyclic peptides of protein M of SARS-CoV Urbani / Binding of serum 37 to looped/cyclic peptides of protein M of SARS-CoV Urbani / Binding of serum 6 to linear peptides of protein X3 of SARS-CoV Urbani / Binding of serum 37 to linear peptides of protein X3 of SARS-CoV Urbani / Binding of serum 37 to looped/cyclic peptides of protein X3 of SARS-CoV Urbani / Binding of serum 6 to linear peptides of protein X4 of SARS-CoV Urbani / Binding of serum 37 to linear peptides of protein X4 of SARS-CoV Urbani / Binding of serum 37 to looped/cyclic peptides of protein X4 of SARS-CoV Urbani / Binding of serum 6 to linear peptides of protein X5 of SARS-CoV Urbani / Binding of serum 37 to linear peptides of protein X5 of SARS-CoV Urbani / Binding of serum 37 to looped/cyclic peptides of protein X5 of SARS-CoV Urbani / Binding of serum 6 to linear peptides of protein N of SARS-CoV Urbani / Binding of serum 37 to linear peptides of protein N of SARS-CoV Urbani / Binding of serum 6 to linear peptide (PEPSCAN-ELISA) / Binding of serum 1a to looped/cyclic peptides of protein N of SARS-CoV Urbani / Binding of serum 1b to looped/cyclic peptides of protein N of SARS-CoV Urbani / Binding of serum 2 to looped/cyclic peptides of protein N of SARS-CoV Urbani / Binding of serum 6 to looped/cyclic peptides of protein N of SARS-CoV Urbani / Binding of serum 37 to looped/cyclic peptides of protein N of SARS-CoV Urbani / Binding of serum 62 to looped/cyclic peptides of protein N of SARS-CoV Urbani / Binding of serum London to looped/cyclic peptides of protein N of SARS-CoV Urbani / Binding of serum SARS-green to looped/cyclic peptides of protein N of SARS-CoV Urbani: unit not given here
[3] = system: recombinant human anti-SARS-CoV antibody 03-018; assay type: binding; set-up: Binding of antibody 03-018 to linear peptides of the N protein of SARS-CoV Urbani / Binding of antibody 03-018 to looped/cyclic peptides of the N protein of SARS-CoV Urbani: unit not given here
[4] = system: control sera (pooled serum of ten healthy LUMC hospital workers; commercial negative donor pooled serum from the Dutch bloodbank); assay type: binding, human; set-up: Binding of Control serum LUMC to linear peptides / Binding of Control serum Blood-bank to linear peptides / Binding of Control serum LUMC to looped peptides / Binding of Control Serum Blood-Bank to Looped peptides / Binding of Control serum LUMC to linear peptides of the protein M of SARS-CoV Urbani / Binding of Control serum Blood-bank to linear peptides of the protein M of SARS-CoV Urbani / Binding of Control serum LUMC to looped peptides of the protein M of SARS-CoV Urbani / Binding of Control Serum Blood-Bank to Looped peptides of the protein M of SARS-CoV Urbani: unit not given here

Row | Sequence | Binding of a rabbit serum to linear peptides of protein N of SARS-CoV Urbani (Rabbit serum linear peptides) [1] | Binding of a rabbit serum to looped/cyclic peptides of protein N of SARS-CoV Urbani (Rabbit serum looped peptides) [1] | Binding of serum 1a to linear peptides of protein N of SARS-CoV Urbani [2] | Binding of serum 1a to looped/cyclic peptides of protein N of SARS-CoV Urbani [2] | Binding of serum 1b to linear peptides of protein N of SARS-CoV Urbani [2] | Binding of serum 1b to looped/cyclic peptides of protein N of SARS-CoV Urbani [2] | Binding of serum 2 to linear peptides of protein N of SARS-CoV Urbani [2] | Binding of serum 2 to looped/cyclic peptides of protein N of SARS-CoV Urbani [2] | Binding of serum 6 to linear peptides of protein N of SARS-CoV Urbani [2] | Binding of serum 6 to looped/cyclic peptides of protein N of SARS-CoV Urbani [2] | Binding of serum 37 to linear peptides of protein N of SARS-CoV Urbani [2] | Binding of serum 37 to looped/cyclic peptides of protein N of SARS-CoV Urbani [2] | Binding of serum 62 to linear peptides of protein N of SARS-CoV Urbani [2] | Binding of serum 62 to looped/cyclic peptides of protein N of SARS-CoV Urbani [2] | Binding of serum London to linear peptides of protein N of SARS-CoV Urbani [2] | Binding of serum London to looped/cyclic peptides of protein N of SARS-CoV Urbani [2] | Binding of serum SARS-green to linear peptides of protein N of SARS-CoV Urbani [2] | Binding of serum SARS-green to looped/cyclic peptides of protein N of SARS-CoV Urbani [2] | Binding of serum SARS-yellow to linear peptides of protein N of SARS-CoV Urbani [2] | Binding of serum SARS-yellow to looped/cyclic peptides of protein N of SARS-CoV Urbani [2] | other results
1 | LPYGANKEGIVWVAT | 0.2 | 0.6 | 0.2 | 0.5 | 0.2 | 0.3 | 0.3 | 0.6 | 0.2 | 0.4 | 0.7 | 0.9 | 0.7 | 0.8 | 0.5 | 0.5 | 0.3 | 0.4 | 0.6 | 0.4 | Binding of antibody 03-018 to linear peptides of the N protein of SARS-CoV Urbani [3]: 0.1; Binding of antibody 03-018 to looped/cyclic peptides of the N protein of SARS-CoV Urbani [3]: 0.2; Binding of Control Serum Blood-Bank to Looped peptides [4]: 0.5; Binding of Control serum Blood-bank to linear peptides [4]: 0.7; Binding of Control serum LUMC to linear peptides [4]: 0.6; Binding of Control serum LUMC to looped peptides [4]: 0.6
2 | DDFSRQLQNSMSGAS | 0.5 | 0.3 | 0.2 | 0.3 | 0.1 | 0.1 | 0.2 | 0.3 | 0.2 | 0.1 | 0.8 | 0.4 | 0.7 | 0.3 | 0.7 | 0.2 | 0.4 | 0.2 | 0.6 | 0.1 | Binding of antibody 03-018 to linear peptides of the N protein of SARS-CoV Urbani [3]: 0.2; Binding of antibody 03-018 to looped/cyclic peptides of the N protein of SARS-CoV Urbani [3]: 0.2; Control Serum Blood-Bank Looped peptides [4]: 0.3; Control serum Blood-bank linear peptides [4]: 0.8; Control serum LUMC linear peptides [4]: 0.6; Control serum LUMC looped peptides [4]: 0.3
